Assay [1] deals with AGS cells (KRAS G12D), phospho-ERK. Briefly: pERK In Cell Western (ICW) assay (Method B), AGS cells. The format is cell-based. The following applies: Homo sapiens, Table 4, pERK, 3 hours, read-out: ICW-AGS. How it is done:
(§1) pERK ICW is a high throughput screening assay to evaluate the cellular potency of mutant KRAS small molecule inhibitors. KRAS mutant cell lines AGS and GP2D (KRAS^G12D) were purchased from ATCC and maintained respectively in RPMI and DMEM medium supplemented with 10% fetal bovine serum and Penicillin/Streptomycin.
(§2) Cells grown in exponential phase were trypsinized, resuspended in fresh media, and viable cells were counted using a cell counter with Trypan Blue (BioRad TC20). Cells were seeded into 384-well plate (Greiner 781091) at density of 5,000 cells/well for AGS and 10,000 cells/well for GP2D and allowed to grow overnight in a 37° C. CO2 incubator. The next day, compounds were dispensed into wells with a ½ log, 10-point serial dilution and top concentration of […] using Tecan D300e dispenser and incubated for 3 hours in a 37° C. CO2 incubator. Cells were then fixed with paraformaldehyde (Electron Microscopy Sciences, 15710, 4% final concentration) for 30 min, permeabilized with wash buffer (1×PBS+0.1% Triton X-100) for 30 min and blocked with Odyssey blocking buffer (Li—COR 927-70001) for 1 hour, all at room temperature (RT). Phospho-ERK antibody (CST 4370L) was diluted 1:500 in Odyssey blocking+0.2% Tween 20 and incubated with cells overnight at 4° C. The next day, plates were washed 5× with wash buffer, incubated with IRDye 800 CW, Goat anti-Rabbit secondary antibody (Li—COR 926-32211, 1:500) and DRAQ5 (CST 4084L, 1:5,000) diluted in Odyssey blocking+0.2% Tween 20 for 1 hour, washed 5×, and imaged on an Odyssey CLx imaging system.
(§3) For data analysis, signal intensities from 800 (phosphor-ERK) and 700 (DRAQ5) channels were extracted, and phospho-ERK signals were normalized to DRAQ5 signals for each well and percent of DMSO control values were computed. Data were then imported into Graphpad Prism to compute half-maximal inhibitory concentrations (IC50) using a 4-parameter variable slope model. Z-factor for each plate was computed from signals derived from wells treated with either DMSO or […] of Trametinib. AGS pERK ICW (Method B) IC50 (uM) values of selected compounds are depicted in Table 2 with compounds having a value 0.001 uM to 0.01 uM as ++++; >0.01 uM to 0.1 uM as +++; >0.1 uM to 1 uM as ++; 1 uM to 10 uM as + and >10 uM as NA.

The subject of assay [2] is GP2D cells (KRAS G12D), phospho-ERK. Briefly: pERK In Cell Western (ICW) assay, GP2D cells. The format is cell-based. As to conditions: Table 4, 3 hours. As to the method:
as §1, §2, §3

The next assay has as its target T1, KRAS G12D/RAF1 (Homo sapiens, UniProt P01116, G12D).
T1 construct: His6-MBP (N, cleaved yes); made in house; host or cells: E. coli
As to the kind of experiment: Protein-protein interaction (PPI) HTRF assay KRAS G12D/RAF1. The format is binding. The following applies: Table 4. The gist of the method:
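HTRF pairing of His-tagged RAF1 (52-131) plus Tb-cryptate donor with GppNHp-exchanged biotin-RAS (KRAS 1-169 wt/G12D/G12V, NRAS wt) plus streptavidin-d2 acceptor; compound sits 30 min with RAS first, then 1 h RT with RAF1. IC50 derived from 665/615 ratio, untagged RAF1 defining full inhibition.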
In general terms: Time-resolved FRET reads energy transfer from a long-lived donor to a nearby acceptor.

Molecules are shown by their SMILES. pIC50: −log10 of the molar value.

T1 sequence (P01116 with tags, fused parts or gaps isoform P01116-2 G12D): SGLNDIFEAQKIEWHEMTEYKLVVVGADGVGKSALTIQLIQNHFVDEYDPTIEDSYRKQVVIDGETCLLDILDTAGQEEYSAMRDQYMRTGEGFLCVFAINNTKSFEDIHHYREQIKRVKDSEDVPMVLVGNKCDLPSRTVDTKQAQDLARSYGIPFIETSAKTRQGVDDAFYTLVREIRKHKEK

Consider `N#Cc1c(N2CC3(CCc4sc(N)c(C#N)c43)C2)nc(OC[C@@]23CCCN2C[C@H](F)C3)nc1N1CCC[C@]2(C1)NC(=O)NC2=O` [Compound 11, 2-amino-1′-[5-cyano-6-[(5R)-2,4-dioxo-1,3,9-triazaspiro[4.5]decan-9-yl]-2-[[(2R,8S)-2-fluoro-1,2,3,5,6,7-hexahydropyrrolizin-8-yl]methoxy]pyrimidin-4-yl]spiro[5,6-dihydrocyclopenta[b]thiophene-4,3′-azetidine]-3-carbonitrile], for which the pIC50 is 5.00 to 6.00 in assay [1], 5.00 to 6.00 in assay [2] and 6.00 to 7.00 on KRAS G12D/RAF1.
`N#Cc1c(N2CCCC3(C2)NC(=O)NC3=O)nc(OC[C@@]23CCCN2C[C@H](F)C3)nc1N1CC2(CCc3sc(N)c(C#N)c32)C1` (stereo partly drawn) [Compound 12, 2-amino-1′-[5-cyano-6-(2,4-dioxo-1,3,9-triazaspiro[4.5]decan-9-yl)-2-[[(2R,8S)-2-fluoro-1,2,3,5,6,7-hexahydropyrrolizin-8-yl]methoxy]pyrimidin-4-yl]spiro[5,6-dihydrocyclopenta[b]thiophene-4,3′-azetidine]-3-carbonitrile]: the pIC50 in assay [1] is 5.00 to 6.00; in assay [2] it was 5.00 to 6.00; against KRAS G12D/RAF1, 6.00 to 7.00.
For `CC(=O)c1nn2c(c1Cl)CN(c1nc(OC[C@@]34CCCN3C[C@H](F)C4)nc(N3CC4(CCc5sc(N)c(C#N)c54)C3)c1C#N)CCC2` [Compound 13, 1′-[6-(2-acetyl-3-chloro-4,6,7,8-tetrahydropyrazolo[1,5-a][1,4]diazepin-5-yl)-5-cyano-2-[[(2R,8S)-2-fluoro-1,2,3,5,6,7-hexahydropyrrolizin-8-yl]methoxy]pyrimidin-4-yl]-2-amino-spiro[5,6-dihydrocyclopenta[b]thiophene-4,3′-azetidine]-3-carbonitrile], the pIC50 in assay [1] was 7.00 to 8.00; in assay [2], 8.00 to 9.00; on KRAS G12D/RAF1, 5.00 to 6.00.
For `CC1CC2(CN(c3nc(OC[C@@]45CCCN4C[C@H](F)C5)nc(N4CCCn5nc(C(=O)N(C)C)c(Cl)c5C4)c3C#N)C2)c2c1sc(N)c2C#N` (stereo partly drawn) [Compound 14, 5-[6-(2-amino-3-cyano-6-methyl-spiro[5,6-dihydrocyclopenta[b]thiophene-4,3′-azetidine]-1′-yl)-5-cyano-2-[[(2R,8S)-2-fluoro-1,2,3,5,6,7-hexahydropyrrolizin-8-yl]methoxy]pyrimidin-4-yl]-3-chloro-N,N-dimethyl-4,6,7,8-tetrahydropyrazolo[1,5-a][1,4]diazepine-2-carboxamide], in that order: 7.00 to 8.00, 8.00 to 9.00 and 6.00 to 7.00.
For `N#Cc1c(N)sc2c1C1(CC2)CN(c2nc(OC[C@@]34CCCN3C[C@H](F)C4)nc(N3C[C@H]4CC[C@@H](C3)N4)c2F)C1` [Compound 15, 2-amino-1′-[6-(3,8-diazabicyclo[3.2.1]octan-3-yl)-5-fluoro-2-[[(2R,8S)-2-fluoro-1,2,3,5,6,7-hexahydropyrrolizin-8-yl]methoxy]pyrimidin-4-yl]spiro[5,6-dihydrocyclopenta[b]thiophene-4,3′-azetidine]-3-carbonitrile], in that order: 7.00 to 8.00, 7.00 to 8.00 and 6.00 to 7.00.
With `Cc1noc(-c2cc3n(n2)CCCN(c2nc(OC[C@@]45CCCN4C[C@H](F)C5)nc(N4CC5(CCc6sc(N)c(C#N)c65)C4)c2C#N)C3)n1` [Compound 16, 2-amino-1′-[5-cyano-6-[2-(3-methyl-1,2,4-oxadiazol-5-yl)-4,6,7,8-tetrahydropyrazolo[1,5-a][1,4]diazepin-5-yl]-2-[[(2R,8S)-2-fluoro-1,2,3,5,6,7-hexahydropyrrolizin-8-yl]methoxy]pyrimidin-4-yl]spiro[5,6-dihydrocyclopenta[b]thiophene-4,3′-azetidine]-3-carbonitrile], the figures for the pIC50 (in assay [1]; in assay [2]; on KRAS G12D/RAF1) were 6.00 to 7.00, 6.00 to 7.00 and 4.00 to 5.00, respectively.
Consider `Cc1noc(-c2nn3c(c2Cl)CN(c2nc(OC[C@@]45CCCN4C[C@H](F)C5)nc(N4CC5(CCc6sc(N)c(C#N)c65)C4)c2C#N)CCC3)n1` [Compound 17, 2-amino-1′-[6-[3-chloro-2-(3-methyl-1,2,4-oxadiazol-5-yl)-4,6,7,8-tetrahydropyrazolo[1,5-a][1,4]diazepin-5-yl]-5-cyano-2-[[(2R,8S)-2-fluoro-1,2,3,5,6,7-hexahydropyrrolizin-8-yl]methoxy]pyrimidin-4-yl]spiro[5,6-dihydrocyclopenta[b]thiophene-4,3′-azetidine]-3-carbonitrile], for which the figures for the pIC50 (in assay [1]; in assay [2]; against KRAS G12D/RAF1) were 6.00 to 7.00, 7.00 to 8.00 and 5.00 to 6.00, respectively.
Consider `CN(C)C(=O)c1nn2c(c1Cl)CN(c1nc(OCC34CCCN3CCC4)nc(N3CC4(CCc5sc(N)c(C#N)c54)C3)c1C#N)CCC2` [Compound 18, 5-[6-(2-amino-3-cyano-spiro[5,6-dihydrocyclopenta[b]thiophene-4,3′-azetidine]-1′-yl)-5-cyano-2-(1,2,3,5,6,7-hexahydropyrrolizin-8-ylmethoxy)pyrimidin-4-yl]-3-chloro-N,N-dimethyl-4,6,7,8-tetrahydropyrazolo[1,5-a][1,4]diazepine-2-carboxamide], for which the results for the pIC50 (in assay [1]; in assay [2]; against KRAS G12D/RAF1) were 6.00 to 7.00, 7.00 to 8.00 and 6.00 to 7.00, respectively.
For `N#Cc1c(N2CCCCCC2)nc(OC[C@@]23CCCN2C[C@H](F)C3)nc1N1CC2(CCc3sc(N)c(C#N)c32)C1` [Compound 19, 2-amino-1′-[6-(azepan-1-yl)-5-cyano-2-[[(2R)-2-fluoro-1,2,3,5,6,7-hexahydropyrrolizin-8-yl]methoxy]pyrimidin-4-yl]spiro[5,6-dihydrocyclopenta[b]thiophene-4,3′-azetidine]-3-carbonitrile], the pIC50 in assay [1] was 5.00 to 6.00; in assay [2], 6.00 to 7.00; on KRAS G12D/RAF1 it was 5.00 to 6.00.
Regarding `CS(=O)(=O)c1cc2n(n1)CCCN(c1nc(OC[C@@]34CCCN3C[C@H](F)C4)nc(N3CC4(CCc5sc(N)c(C#N)c54)C3)c1C#N)C2` [Compound 21, 2-amino-1′-[5-cyano-2-[[(2R,8S)-2-fluoro-1,2,3,5,6,7-hexahydropyrrolizin-8-yl]methoxy]-6-(2-methylsulfonyl-4,6,7,8-tetrahydropyrazolo[1,5-a][1,4]diazepin-5-yl)pyrimidin-4-yl]spiro[5,6-dihydrocyclopenta[b]thiophene-4,3′-azetidine]-3-carbonitrile], the pIC50 was 6.00 to 7.00 in assay [1], 7.00 to 8.00 in assay [2] and 5.00 to 6.00 against KRAS G12D/RAF1.
Taken in the same sequence, the figures for `N#Cc1c(N)sc2c1C1(CC2)CN(c2nc(OCC3(CN4CCOCC4)CC3)nc(N3C[C@H]4CC[C@@H](C3)N4)c2F)C1` [Compound 22, 2-amino-1′-[6-(3,8-diazabicyclo[3.2.1]octan-3-yl)-5-fluoro-2-[[1-(morpholinomethyl)cyclopropyl]methoxy]pyrimidin-4-yl]spiro[5,6-dihydrocyclopenta[b]thiophene-4,3′-azetidine]-3-carbonitrile] were 7.00 to 8.00, 7.00 to 8.00 and 6.00 to 7.00.
Take `N#Cc1c(N2C[C@H]3CC[C@@H](C2)N3)nc(OCC2(CN3CCOCC3)CC2)nc1N1CC2(CCc3sc(N)nc32)C1` [Compound 23, 4-(2-aminospiro[5,6-dihydrocyclopenta[d]thiazole-4,3′-azetidine]-1′-yl)-2-[[1-(morpholinomethyl)cyclopropyl]methoxy]-6-[(1R,5S)-3,8-diazabicyclo[3.2.1]octan-3-yl]pyrimidine-5-carbonitrile]: the pIC50 in assay [1] is 6.00 to 7.00; in assay [2], 7.00 to 8.00; against KRAS G12D/RAF1 it was 5.00 to 6.00.

These data come from US12145947B2, “Pyrimidine based modulators and uses thereof” (Quanta Therapeutics, Inc., priority 2022, dated 2024).
